The results in this text go back to ChEMBL document CHEMBL5257048, “Embellicines C-E: Macrocyclic Alkaloids with a Cyclopenta[b]fluorene Ring System from the Fungus Sarocladium sp” (J Nat Prod, 2023).

Assay type in all cases: functional, cell-based
One experiment deals with MDA-MB-231. Description: Cytotoxicity against human MDA-MB-231 cells assessed as inhibition of cell growth incubated for 72 hrs by MTT assay. The following applies: MDA-MB-231, 72 h. (In general: Formazan colour is commonly taken as a measure of viable cells.)
The subject of another experiment is MDA-MB-435. Description: Cytotoxicity against human MDA-MB-435 cells assessed as inhibition of cell growth incubated for 72 hrs by MTT assay. Particulars: MDA-MB-435, 72 h.
A further experiment has as its system OVCAR-3. Description: Cytotoxicity against human OVCAR-3 cells assessed as inhibition of cell growth incubated for 72 hrs by MTT assay. The following applies: OVCAR-3, 72 h.

Consider `CC1=C[C@]2(C)C(=C(C)[C@@H]3[C@@H]4C[C@H](C)C[C@H](C)[C@H]4[C@H]4Oc5ccc(cc5)C[C@@]5(O)C=C(C(=O)N5)C(=O)[C@H]2[C@@H]43)[C@@H]1C`, for which the half-inhibitory concentration (IC50) in the experiment with MDA-MB-231 is 0.4 µM; in the experiment with MDA-MB-435 it was 1.5 µM; with OVCAR-3, 1.6 µM.
The corresponding values for `CC1=C[C@]2(C)C(=C(C)[C@@H]3[C@@H]4C[C@H](C)C[C@H](C)[C@H]4[C@H]4Oc5ccc(cc5)C[C@]5(O)NC(=O)[C@]6(O[C@H]65)C(=O)[C@H]2[C@@H]43)[C@@H]1C` are 4.8 µM, 17 µM and 21 µM.
On the same counts, the results for `CC(=O)O[C@]12Cc3ccc(cc3)O[C@@H]3[C@H]4[C@@H](C[C@H](C)C[C@@H]4C)[C@H]4C(C)=C5[C@H](C)C(C)=C[C@@]5(C)[C@@H](C(=O)[C@@]5(O[C@H]51)C(=O)N2)[C@@H]34` are 4.4 µM, 20 µM and 20 µM.
The corresponding values for `CC1=C[C@]2(C)C(=C(C)[C@@H]3[C@@H]4C[C@H](C)C[C@H](C)[C@H]4[C@H]4Oc5ccc(cc5)CC(=O)[C@@H]5O[C@@]5(C(N)=O)C(=O)[C@H]2[C@@H]43)[C@@H]1C` are 3.2 µM, 18 µM and 24 µM.
Consider `CO[C@@H]1/C2=C(\O)[C@H]3[C@H]4[C@H](Oc5ccc(cc5)C[C@]1(O)NC2=O)[C@H]1[C@@H](C[C@H](C)C[C@@H]1C)[C@H]4C(C)=C1[C@H](C)C(C)=C[C@]13C`, for which the half-maximal inhibitory concentration (IC50) came to 0.4 µM with MDA-MB-231, 1.8 µM in the experiment with MDA-MB-435 and 1 µM in the experiment with OVCAR-3.

The IC50 is the concentration that gives 50% inhibition.
